Test results reported in ChEMBL document CHEMBL1201862, “PubChem BioAssay data set” (2004).
Activity calls are given as the source filed them.

Tests used:
[1] = intracellular Trypanosoma cruzi inhibitors in host cells – cell-based, plate reader, cherry-pick samples, set 3, dose response (AID 651818); format: functional;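 note: compounds incubated with infected cells for about four days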
[2] = target: T1, Carboxy-terminal domain RNA polymerase II polypeptide A small phosphatase 1 (Homo sapiens, UniProt Q9GZU7); test: inhibitors of CTDSP1, concentration-response testing, biochemical assay, absorbance-based, actives from ultra-high-throughput screening (AID 540297); format: functional
T1 sequence (Q9GZU7 whole entry): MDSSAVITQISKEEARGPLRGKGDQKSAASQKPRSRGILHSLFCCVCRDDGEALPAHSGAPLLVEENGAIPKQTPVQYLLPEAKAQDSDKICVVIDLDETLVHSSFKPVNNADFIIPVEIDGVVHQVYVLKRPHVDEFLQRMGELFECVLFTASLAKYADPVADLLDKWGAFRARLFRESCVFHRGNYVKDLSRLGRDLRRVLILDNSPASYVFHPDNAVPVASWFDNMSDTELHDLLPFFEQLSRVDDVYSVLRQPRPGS

INS1 = test: beta cell apoptosis inhibitors, cytokine rescue, dose response, luminescence, retest (AID 449756); format: functional, cell-based; settings: Rattus norvegicus;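 note: cell death triggered by IL-1 beta plus TNF-alpha plus IFN-gamma mixture; protective hits raise ATP signal compared with cytokine alone wells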
[3] = Shn3 3'UTR reporter inhibitors, dose response, cell-based, Clone20 osteoblasts, firefly luciferase, cherry-picked (AID 624132); format: functional;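 note: firefly luciferase luminescence from reporter carrying the Shn3 3'UTR in osteoblasts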
[4] = control 3'UTR Renilla luciferase suppression, dose response, counter-screen for Shn3 inhibitor project, cell-based, Clone20-Shn3RL, cherry-picked (AID 624133); format: functional
[5] = inhibitors of intracellular T. cruzi replication, confirmation, NIH3T3 host cells, beta-gal luminescence (AID 2044); format: functional, cell-based;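 note: intracellular parasites grown in NIH/3T3 mouse fibroblasts as host cells; luminescent beta-galactosidase reporter signal from transgenic T. cruzi replicating inside host cells; inhibitors lower the luminescence signal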
[6] = cytotoxicity toward NIH3T3 fibroblasts, dose response, counter-screen, cell-based, ATP luminescence, mouse fibroblasts (AID 2010); format: functional;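 note: cells exposed to compound for about 90 hours before reading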
[7] = Luminescence Cell-Based Dose Retest to Confirm Inhibitors of Cancer Stem Cells. [Related pubchem assays (depositor defined):AID2717, AID2721]; format: functional; settings: Homo sapiens
[8] = target: T2, Ubiquitin-conjugating enzyme E2 N (Homo sapiens, UniProt P61088); format: functional;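 note: Dose-response confirmation in a TR-FRET assay detecting UBC13-driven polyubiquitin chain formation, inhibition measured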
T2 sequence (P61088 whole entry): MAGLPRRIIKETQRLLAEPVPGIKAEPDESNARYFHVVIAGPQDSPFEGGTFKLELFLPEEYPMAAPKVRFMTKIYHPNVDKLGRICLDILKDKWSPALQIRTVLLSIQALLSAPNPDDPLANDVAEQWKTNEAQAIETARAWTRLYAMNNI

[9] = target: T3, DNA repair protein RAD52 homolog (Homo sapiens, UniProt P43351); format: functional, biochemical
T3 sequence (P43351 whole entry): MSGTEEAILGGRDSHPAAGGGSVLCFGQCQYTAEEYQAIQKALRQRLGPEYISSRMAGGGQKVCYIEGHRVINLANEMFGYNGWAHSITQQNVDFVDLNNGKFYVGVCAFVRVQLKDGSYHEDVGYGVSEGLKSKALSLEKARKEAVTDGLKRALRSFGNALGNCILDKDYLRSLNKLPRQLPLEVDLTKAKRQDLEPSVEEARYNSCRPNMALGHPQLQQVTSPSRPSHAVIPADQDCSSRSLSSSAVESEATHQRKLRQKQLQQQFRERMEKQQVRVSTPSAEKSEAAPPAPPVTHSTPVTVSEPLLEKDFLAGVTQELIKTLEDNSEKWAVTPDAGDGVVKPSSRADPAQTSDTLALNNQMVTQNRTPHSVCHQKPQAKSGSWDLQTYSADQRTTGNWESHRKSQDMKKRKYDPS

[10] = inhibitors of HIV Env-driven cell fusion, dose response, cherry-pick (AID 652057); format: functional, cell-based
[11] = ZM109 Env clade C HIV-1 fusion inhibitors, dose response, HeLa effector, CEM target cells, luciferase, cherry-pick (AID 652058); format: functional, cell-based
[12] = inhibitors of clade B AD8 Env fusion, dose response, cell-based, cherry-pick (AID 652062); format: functional;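 note: luciferase signal from cell-cell fusion driven by HIV-1 clade B AD8 Env; potency is for inhibitors of fusion seen as a drop in luminescence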
[13] = target: Ras and Rab interactor 1/Tyrosine-protein kinase ABL1 (Homo sapiens, UniProt P00519+Q13671); format: functional;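 note: biochemical TR-FRET dose-response test measuring inhibition of binding between Rin1 and Abl proteins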
P388/ADR = test: cells; format: functional; settings: Mus musculus
SN12K1 = test: cells; format: functional; settings: Homo sapiens
[14] = LGR2 antagonists, dose response, cell-based, HEK293, CRE-luciferase reporter, cherry pick, set 2 (AID 743343); format: functional;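 note: transfected cells were stimulated with diluted bursicon conditioned medium after compound addition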
[15] = MC4R antagonists, dose response, counter-screen for LGR2 antagonist project, cell-based, plate reader, cherry pick (AID 743444); format: functional;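 note: transfected HEK 293 cells stimulated with alpha-MSH peptide; potency of inhibitors of the alpha-MSH evoked signal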
[16] = test system: Streptococcus sp. 'group A'; test: growth inhibition of control SK(-) GAS strain, dose response, counter-screen for streptokinase expression inhibitor project, luminescence, kanamycin, BacTiterGlo, confirmation (AID 1900); format: functional, organism-based
Streptokinase A = target: T4, Streptokinase A (Streptococcus pyogenes serotype M1, UniProt P10520); test: S. pyogenes streptokinase expression inhibitors, potency, dose response, plasminogen activation absorbance, OD405 (AID 1914); format: functional, Streptococcus pyogenes M1 GAS;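 note: secreted streptokinase activity via plasminogen activation per viability signal from cell pellet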
T4 sequence (P10520 whole entry): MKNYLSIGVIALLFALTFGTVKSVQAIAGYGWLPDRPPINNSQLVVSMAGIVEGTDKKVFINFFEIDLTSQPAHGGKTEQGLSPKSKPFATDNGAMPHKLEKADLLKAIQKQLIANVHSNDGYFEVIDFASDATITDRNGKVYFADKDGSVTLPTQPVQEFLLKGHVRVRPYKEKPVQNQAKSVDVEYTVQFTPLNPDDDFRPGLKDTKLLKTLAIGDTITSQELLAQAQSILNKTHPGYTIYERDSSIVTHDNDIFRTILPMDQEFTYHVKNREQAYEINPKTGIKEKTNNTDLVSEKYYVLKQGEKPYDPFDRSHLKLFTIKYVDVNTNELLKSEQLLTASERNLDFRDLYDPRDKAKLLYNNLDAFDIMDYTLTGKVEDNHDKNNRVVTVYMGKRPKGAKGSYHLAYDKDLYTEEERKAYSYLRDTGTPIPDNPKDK

Streptococcus = test: Group A Streptococcus viability loss, dose response, counter-screen for streptokinase expression inhibitor project, luminescence, BacTiterGlo (AID 1915); format: functional, organism-based;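 note: potency for reduction of bacterial viability or growth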
Nonstructural protein 1 = Nonstructural protein 1 (Influenza A virus, UniProt Q194T2); format: functional, Influenza A virus (A/California/07/2009(H1N1))
[17] = target: T5, Replicative DNA helicase DnaB (Mycobacterium tuberculosis, UniProt P9WMR3); test: DnaB intein splicing inhibitors, dose response, biochemical, cell-free fluorescence (AID 449749); format: functional
T5 sequence (P9WMR3 whole entry): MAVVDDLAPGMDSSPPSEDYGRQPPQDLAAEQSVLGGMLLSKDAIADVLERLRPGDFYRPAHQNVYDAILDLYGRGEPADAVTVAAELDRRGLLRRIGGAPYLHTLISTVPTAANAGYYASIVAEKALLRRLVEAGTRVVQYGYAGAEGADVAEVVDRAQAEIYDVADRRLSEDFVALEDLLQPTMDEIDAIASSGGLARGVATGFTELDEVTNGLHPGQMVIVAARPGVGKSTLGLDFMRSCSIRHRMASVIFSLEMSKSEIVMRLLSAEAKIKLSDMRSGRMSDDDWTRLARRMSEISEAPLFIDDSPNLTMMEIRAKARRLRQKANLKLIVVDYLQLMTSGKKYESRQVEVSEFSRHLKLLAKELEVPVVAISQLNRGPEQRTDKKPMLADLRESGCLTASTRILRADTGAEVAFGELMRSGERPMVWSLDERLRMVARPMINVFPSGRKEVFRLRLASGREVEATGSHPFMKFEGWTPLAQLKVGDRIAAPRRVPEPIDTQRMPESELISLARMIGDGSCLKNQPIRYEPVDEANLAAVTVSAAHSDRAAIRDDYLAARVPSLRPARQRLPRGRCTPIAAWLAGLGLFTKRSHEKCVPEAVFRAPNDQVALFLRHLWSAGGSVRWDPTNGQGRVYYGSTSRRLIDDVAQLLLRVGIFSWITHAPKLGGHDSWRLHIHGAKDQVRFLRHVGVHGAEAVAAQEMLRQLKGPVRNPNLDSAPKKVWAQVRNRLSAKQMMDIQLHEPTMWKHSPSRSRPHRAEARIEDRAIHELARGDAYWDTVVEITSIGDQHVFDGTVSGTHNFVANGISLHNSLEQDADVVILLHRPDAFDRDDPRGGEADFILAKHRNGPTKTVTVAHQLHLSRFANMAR

Protein RecA = target: T6, Protein RecA (Mycobacterium tuberculosis, UniProt P9WHJ3); test: Fluorescence Cell-Free Homogeneous Dose Retest to Identify Inhibitors of RecA-Intein Splicing Activity. [Related pubchem assays (depositor defined):AID2097, AID2223, AID489010, AID492950]; format: functional
T6 sequence (P9WHJ3 whole entry): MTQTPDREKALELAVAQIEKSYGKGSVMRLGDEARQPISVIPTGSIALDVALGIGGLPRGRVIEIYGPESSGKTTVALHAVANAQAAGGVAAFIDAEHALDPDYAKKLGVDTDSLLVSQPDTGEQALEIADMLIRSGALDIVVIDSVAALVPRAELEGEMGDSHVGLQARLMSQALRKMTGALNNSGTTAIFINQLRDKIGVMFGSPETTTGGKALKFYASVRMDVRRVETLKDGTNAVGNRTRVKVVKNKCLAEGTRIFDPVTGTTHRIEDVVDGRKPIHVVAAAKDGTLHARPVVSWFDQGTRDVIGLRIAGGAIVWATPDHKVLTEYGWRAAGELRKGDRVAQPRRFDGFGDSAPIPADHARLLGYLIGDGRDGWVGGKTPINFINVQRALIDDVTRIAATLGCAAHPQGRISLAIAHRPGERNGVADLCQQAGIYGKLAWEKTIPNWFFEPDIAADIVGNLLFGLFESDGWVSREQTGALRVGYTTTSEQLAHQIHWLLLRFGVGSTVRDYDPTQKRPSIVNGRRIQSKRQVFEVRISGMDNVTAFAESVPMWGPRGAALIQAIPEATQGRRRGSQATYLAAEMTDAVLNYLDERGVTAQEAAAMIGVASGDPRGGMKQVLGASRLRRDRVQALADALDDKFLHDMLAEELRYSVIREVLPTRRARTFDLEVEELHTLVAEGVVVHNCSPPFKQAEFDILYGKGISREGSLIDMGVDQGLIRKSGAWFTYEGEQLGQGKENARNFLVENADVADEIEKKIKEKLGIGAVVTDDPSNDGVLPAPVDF

Sequence of Ras and Rab interactor 1/Tyrosine-protein kinase ABL1 (P00519 whole entry): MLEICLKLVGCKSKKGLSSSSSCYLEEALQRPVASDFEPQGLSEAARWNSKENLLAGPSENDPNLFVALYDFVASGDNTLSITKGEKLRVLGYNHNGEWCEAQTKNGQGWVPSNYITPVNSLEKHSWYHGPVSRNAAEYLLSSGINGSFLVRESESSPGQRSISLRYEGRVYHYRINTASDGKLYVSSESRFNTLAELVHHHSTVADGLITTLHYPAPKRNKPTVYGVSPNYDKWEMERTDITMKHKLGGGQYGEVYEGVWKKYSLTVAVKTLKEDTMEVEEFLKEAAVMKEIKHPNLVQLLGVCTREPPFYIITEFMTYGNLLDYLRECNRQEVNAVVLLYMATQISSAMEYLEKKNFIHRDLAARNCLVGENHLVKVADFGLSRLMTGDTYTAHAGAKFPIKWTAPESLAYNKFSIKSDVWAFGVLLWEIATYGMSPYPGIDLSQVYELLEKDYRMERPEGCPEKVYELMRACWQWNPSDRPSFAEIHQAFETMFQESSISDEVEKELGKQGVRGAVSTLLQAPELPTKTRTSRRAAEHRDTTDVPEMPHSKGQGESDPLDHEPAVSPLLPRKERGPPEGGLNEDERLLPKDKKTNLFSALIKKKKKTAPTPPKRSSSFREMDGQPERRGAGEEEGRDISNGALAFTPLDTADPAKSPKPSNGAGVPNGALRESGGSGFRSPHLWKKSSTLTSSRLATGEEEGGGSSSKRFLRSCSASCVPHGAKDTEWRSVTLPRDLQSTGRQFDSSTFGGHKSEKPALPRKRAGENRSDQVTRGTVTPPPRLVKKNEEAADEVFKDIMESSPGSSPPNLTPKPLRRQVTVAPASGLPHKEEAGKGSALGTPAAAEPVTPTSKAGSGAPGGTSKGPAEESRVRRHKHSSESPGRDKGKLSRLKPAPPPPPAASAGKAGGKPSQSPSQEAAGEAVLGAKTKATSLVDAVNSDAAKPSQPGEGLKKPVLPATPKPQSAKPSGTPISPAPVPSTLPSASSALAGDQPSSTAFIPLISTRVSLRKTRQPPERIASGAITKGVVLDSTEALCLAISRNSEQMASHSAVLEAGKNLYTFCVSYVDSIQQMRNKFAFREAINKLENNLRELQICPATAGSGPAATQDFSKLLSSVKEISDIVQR
Sequence of Ras and Rab interactor 1/Tyrosine-protein kinase ABL1 (Q13671 whole entry): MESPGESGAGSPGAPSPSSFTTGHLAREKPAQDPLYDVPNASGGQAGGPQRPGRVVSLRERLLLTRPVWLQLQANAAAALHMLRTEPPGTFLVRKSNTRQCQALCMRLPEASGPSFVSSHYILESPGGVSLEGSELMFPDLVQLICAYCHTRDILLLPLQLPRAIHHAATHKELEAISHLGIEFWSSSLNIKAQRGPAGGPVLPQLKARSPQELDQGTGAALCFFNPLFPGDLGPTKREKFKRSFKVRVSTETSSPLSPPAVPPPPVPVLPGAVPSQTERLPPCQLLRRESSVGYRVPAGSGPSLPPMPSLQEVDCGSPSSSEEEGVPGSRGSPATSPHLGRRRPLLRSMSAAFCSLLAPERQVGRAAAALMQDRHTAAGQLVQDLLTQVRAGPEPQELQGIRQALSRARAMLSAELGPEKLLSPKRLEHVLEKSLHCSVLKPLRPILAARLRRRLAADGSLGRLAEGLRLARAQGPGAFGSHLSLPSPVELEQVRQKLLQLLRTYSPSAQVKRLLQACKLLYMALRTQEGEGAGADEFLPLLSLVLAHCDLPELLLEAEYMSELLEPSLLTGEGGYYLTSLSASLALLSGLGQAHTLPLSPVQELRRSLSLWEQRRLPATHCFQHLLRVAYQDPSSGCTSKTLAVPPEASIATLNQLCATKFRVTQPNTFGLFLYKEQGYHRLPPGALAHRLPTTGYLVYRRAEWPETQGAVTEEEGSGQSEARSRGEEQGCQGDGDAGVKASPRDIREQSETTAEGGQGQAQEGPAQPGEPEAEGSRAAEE
Sequence of Nonstructural protein 1 (Q194T2 whole entry): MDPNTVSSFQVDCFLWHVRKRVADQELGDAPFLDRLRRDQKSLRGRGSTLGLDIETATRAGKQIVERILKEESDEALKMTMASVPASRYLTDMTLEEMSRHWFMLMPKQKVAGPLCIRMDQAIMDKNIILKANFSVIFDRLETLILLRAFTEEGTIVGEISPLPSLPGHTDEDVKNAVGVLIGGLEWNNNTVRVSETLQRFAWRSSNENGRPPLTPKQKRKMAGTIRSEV

Compound: C[C@H](CO)N1C[C@H](C)[C@H](CN(C)Cc2ccc(-c3ccccc3)cc2)Oc2ccc(NC(=O)CCCCCC(=O)Nc3ccccc3N)cc2CC1=O
- AC50 [1]: 3.39 µM (active)

Compound: C[C@H](CO)N1C[C@H](C)[C@H](CN(C)C(=O)Nc2ccccc2)Oc2c(NC(=O)c3ccncc3)cccc2C1=O
- AC50 [1]: 2.12 µM (active)

Compound: O=C(COC(=O)c1cccc(S(=O)(=O)N2CCN(c3ccccc3)CC2)c1)NCc1ccco1
- IC50 [2]: 4.41 µM (active)

Compound: COCCn1c(SCC(=O)/C=C2\N(C)c3ccccc3C2(C)C)nnc1-c1ccncc1
- AC50 (INS1): 6.34 µM (active)
- AC50 [3]: 2.65 µM (active)
- AC50 [4]: 5.61 µM (active)

Compound: CCN1CCN(CCCNC(=O)c2ccc(/C=C3/Sc4ccccc4N(Cc4ccccc4F)C3=O)cc2)CC1
- EC50 [5]: 1.07 µM (active)
- EC50 [6]: 22.8 µM (active)
- AC50 [7]: 2.41 µM (active)
- IC50 [8]: > 20 µM (inactive)
- AC50 [9]: 8.67 µM (active)

Compound: C[C@H](CO)N1C[C@H](C)[C@H](CN(C)S(=O)(=O)c2ccccc2)Oc2ccc(NC(=O)Cc3cn(C)c4ccccc34)cc2CC1=O
- AC50 [10]: < 0.26 µM (active)
- AC50 [11]: 0.816 µM (active)
- AC50 [12]: 12 µM (active)

Compound: O=C1N(c2cccc(Cl)c2)C(c2ccccc2)N2CCCN12 (stereo unspecified)
- IC50 [13]: 22.2 µM (inactive)

Compound: O=C1C=C[C@@H](COC2OC(CO)C(O)C(O)C2O)O1 (stereo partly specified)
- GI50 (P388/ADR): 0.343 µM (active)
- GI50 (SN12K1): 13.2 µM (inactive)

Compound: O=C1N(c2cccc(Cl)c2)C(c2ccc(Cl)cc2)N2CCCN12 (stereo unspecified)
- IC50 [13]: 31.8 µM (inactive)

Compound: C=CCNc1nc(-c2cc3ccccc3o2)cs1
- AC50 [14]: 13.9 µM (active)
- AC50 [15]: 15.2 µM (active)

Compound: O=C(Cc1ccc(S(=O)(=O)N2CCOCC2)s1)NC1CCCCC1
- IC50 [2]: 7.34 µM (active)

Compound: C[C@H]1CN([C@@H](C)CO)C(=O)Cc2cc(NC(=O)Cc3ccccc3)ccc2O[C@H]1CN(C)S(=O)(=O)c1ccccc1
- AC50 [10]: 1.62 µM (active)
- AC50 [11]: 1.6 µM (active)
- AC50 [12]: 7.88 µM (active)

Compound: C[C@@H]1CCCCO[C@@H](CN(C)C(=O)Nc2ccc(C(F)(F)F)cc2)[C@@H](C)CN([C@H](C)CO)C(=O)c2cc(NC(=O)NC3CCCCC3)ccc2O1
- AC50 [1]: 5.12 µM (active)

Compound: COC(=O)c1c(C)nc(C)c2c(=O)oc3ccccc3c12
- IC50 [13]: > 73.5 µM (inactive)

Compound: CCN(CC)c1ccc(/C=N/NC(=O)CCCCCCC(=O)Nc2ccccc2O)c(O)c1
- AC50 [1]: 1.94 µM (active)

Compound: COc1ccc2nc(NC(=O)CCc3nc(C4=CCN(C)CC4)no3)sc2c1
- IC50 [13]: 1.4 µM (active)

Compound: COc1ccc(-c2cc(NC=O)c3ncc(-c4cccc(C(=O)NCCN(C)C)c4)n3c2)c(OC)c1
- AC50 [9]: 2.55 µM (active)

Compound: CCOC(=O)C1=C(C)n2c(s/c(=C/c3cccc([N+](=O)[O-])c3)c2=O)=NC1c1ccc(O)c(OC)c1 (stereo unspecified)
- EC50 [16]: 8.14 µM (active)
- EC50 (Streptokinase A): 48.8 µM (active)
- EC50 [5]: 1.11 µM (active)
- EC50 [6]: > 60 µM (not active)
- EC50 (Streptococcus): > 150 µM (not active)
- IC50 (Nonstructural protein 1): > 100 µM (active)
- AC50 [17]: 13.1 µM (active)
- EC50 (Protein RecA): 1.29 µM (active)

Compound: CC(=O)Nc1ccc(S(=O)(=O)NC2=NC(=O)/C(=C\c3ccco3)S2)cc1
- IC50 [2]: 7.44 µM (active)

Compound: CN(CCc1ccccc1)C(=O)c1ccc(NC(=O)Cc2ccc(NC(=O)C3CCN(C(=O)c4ccccc4)CC3)cc2)cc1
- IC50 [13]: 3.91 µM (active)

Compound: Cc1ccc(Cl)cc1N1CCN(C(=O)CSc2ccsc2[N+](=O)[O-])CC1
- IC50 [2]: 6.96 µM (active)

Compound: NC(=O)C(CC(=O)O)NC(=O)[C@@H]1CCCNc2c(I)cc([N+](=O)[O-])cc2C(=O)N[C@@H](CO)C(=O)N[C@@H](Cc2ccc(O)cc2)C(=O)N1 (stereo partly specified)
- IC50 [2]: 19.7 µM (active)
